Measured values taken from PubChem BioAssay (NCI).
Values joined by “and” are separate entries in the source; they are usually repeats but may differ in a detail not shown here. Identical values can stand only once.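 48-hour exposure; five concentrations; linearly interpolated endpoints. TGI denotes the concentration required for complete inhibition of growth.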 Where a SMILES comes first, the peptide text is derived from it. Side-chain parts run from the residue outwards. The star is where a group is joined. Cbz = O=C(OCc1ccccc1)*; Boc = CC(C)(C)OC(=O)*

Legend:
Assay in all cases: DTP human tumour cell line panel, 48 h
SK-MEL-2 melanoma = test system: SK-MEL-2 melanoma
UO-31 renal = test system: UO-31 renal
SN12C renal = test system: SN12C renal
MOLT-4 leukemia = test system: MOLT-4 leukemia
IGROV1 ovarian = test system: IGROV1 ovarian
OVCAR-8 ovarian = test system: OVCAR-8 ovarian
UACC-62 melanoma = test system: UACC-62 melanoma
CCRF-CEM leukemia = test system: CCRF-CEM leukemia
HL-60(TB) leukemia = test system: HL-60(TB) leukemia
HOP-62 NSCLC = test system: HOP-62 NSCLC
LOX IMVI melanoma = test system: LOX IMVI melanoma
RXF 393 renal = test system: RXF 393 renal
SF-539 CNS = test system: SF-539 CNS
NCI/ADR-RES ovarian = test system: NCI/ADR-RES ovarian
HS 578T breast = test system: HS 578T breast

Compound	TGI (SK-MEL-2 melanoma) [µM]	TGI (UO-31 renal)	TGI (SN12C renal)	TGI (MOLT-4 leukemia) [µM]	TGI (IGROV1 ovarian)	TGI (OVCAR-8 ovarian) [µM]	TGI (UACC-62 melanoma)	TGI (CCRF-CEM leukemia) [µM]	TGI (HL-60(TB) leukemia) [µM]	TGI (HOP-62 NSCLC) [µM]	TGI (LOX IMVI melanoma)	TGI (RXF 393 renal) [µM]	TGI (SF-539 CNS) [µM]	TGI (NCI/ADR-RES ovarian) [µM]	TGI (HS 578T breast) [µM]
CC(C)(C)OC(=O)NC(CCCCNC(=O)CNC(=O)OCc1ccccc1)C(=O)NC(CCCCNC(=O)CNC(=O)OCc1ccccc1)C(=O)NC(CCCCNC(=O)CNC(=O)OCc1ccccc1)C(=O)NC(CCCCNC(=O)CNC(=O)OCc1ccccc1)C(=O)O (centres undefined) (Boc-K([Gly-Cbz])K([Gly-Cbz])K([Gly-Cbz])K([Gly-Cbz])-OH; configuration not given here)	> 100	> 100 µM	> 100 µM	> 100	> 100 µM	> 100	> 100 µM	> 100	> 100	> 100	> 100 µM				
COc1ccc(C2=C(Cl)c3cc(OC)c(OC)cc3C2)cc1OC		> 100 µM	> 100 µM	> 100	> 100 µM	> 100	> 100 µM	> 100	> 100	> 100		73.7	> 100		
OCC1OC(c2ccccc2)CC1O (centres undefined)	> 100	> 100 µM	> 100 µM	> 100	> 100 µM	> 100	> 100 µM	> 100	> 100		> 100 µM	> 100	> 100	> 100	
CC(C)C1=C(Cc2ccccc2)C(=O)O/C1=C\c1ccc(O)c(Cl)c1		27.5 µM	30.7 µM	28.1	30.5 µM	33.1	28 µM	46.8	37.7	31.7	32.3 µM	31.2	33.2		33.9
O=C1c2cccnc2-c2nccc3c2c1nc1ccc(Br)cc13	0.306	0.202 µM	0.205 µM	0.569	0.143 µM	0.223	0.124 µM	0.133	0.0377	0.194	0.0806 µM	0.0691	0.141	0.176	
O=C(NN1C(=O)C(Cl)C1c1ccccc1Cl)c1ccccc1O (centres undefined)	> 100	> 100 µM	> 100 µM	> 100		> 100	> 100 µM	> 100	> 100		> 100 µM	88.2	> 100		
O=C(NNS(=O)(=O)c1ccccc1)c1csc(NC(=S)NC2CCCCC2)n1	41.7	74.1 µM	39.3 µM	> 100	85.1 µM	> 100	61.3 µM	> 100	> 100	> 100	33.9 µM		62.3	> 100	
COc1ccc(N2C(=O)C3c4[nH]c5ccccc5c4C4c5ccccc5CC4C3C2=O)cc1 (centres undefined)	> 100	> 100 µM	> 100 µM	> 100	> 100 µM	> 100	> 100 µM	> 100	> 100	> 100	> 100 µM	> 100	> 100	> 100	
CC1=NN(C(=O)Cc2ccccc2)C(=O)/C1=C\c1ccccc1O	> 100	> 100 µM	> 100 µM	> 100	> 100 µM	> 100	> 100 µM	> 100	> 100	> 100	> 100 µM	> 100	> 100		
O=c1[nH]c(=O)n(COCc2ccccc2)c2ccccc12	> 100	> 100 µM	> 100 µM	> 100	> 100 µM	> 100	> 100 µM	> 100	> 100		> 100 µM	94.5	> 100	92.7	
COc1cc2[nH]c(=O)c3cc(C)cc4c(Cl)nc(c1OC)c2c43	> 100	> 100 µM		> 100	> 100 µM	> 100	96 µM	> 100	> 100	75.7	> 100 µM	58.1	> 100	> 100	
C=CCOCn1ccc(N)nc1=O		> 100 µM	> 100 µM	> 100	> 100 µM	> 100	> 100 µM	> 100	> 100	> 100	> 100 µM		> 100		> 100
COc1ccc(C2=NNC(c3cc4cc(Br)ccc4nc3Cl)C2)cc1 (centres undefined)	> 25	> 25 µM	> 25 µM	> 25	> 25 µM		> 25 µM	5.28	12.1						24.2
COc1ccc(-c2nc(-c3cnccn3)n(Cc3ccccc3)n2)cc1		> 100 µM	> 100 µM	> 100	> 100 µM	> 100	> 100 µM	> 100	> 100	> 100	> 100 µM	> 100	> 100	> 100	
Cc1ccc(NC(=O)/C(=N/NC(=O)C[N+](C)(C)C)c2nc3ccccc3[nH]c2=O)cc1	> 100	> 100 µM	> 100 µM	> 100	> 100 µM	> 100	> 100 µM			> 100	> 100 µM	> 100	> 100		
CC(=O)OCCOCNC(=S)N/N=C(\C)c1cccs1	> 100	> 100 µM	> 100 µM	> 100	> 100 µM	> 100	> 100 µM	> 100	> 100	> 100	> 100 µM	> 100	> 100		
C[N+](C)(C)CC(=O)N/N=C(/Cc1nc2ccc([N+](=O)[O-])cc2[nH]c1=O)C(=O)Nc1cc(C(F)(F)F)ccc1Cl	> 100	> 100 µM	> 100 µM	> 100	> 100 µM	> 100	> 100 µM	> 100	> 100	> 100		> 100	> 100		
O=C1CC(C(COCc2ccccc2)OCc2ccccc2)CC(=O)N1 (centres undefined)		> 100 µM	> 100 µM	> 100	> 100 µM	> 100		> 100	> 100	> 100	> 100 µM		> 100		> 100
Cc1c2cccc-2c(OCCOC(=O)n2ccnc2)cc2c1[nH]c1ccccc12	5.48	3.39 µM	5.89 µM	25.2	6.23 µM	5.22	6.63 µM		5.46	28.4	3.86 µM				> 100
COc1cc2c(c(OC)c1OC)-c1ccc(SC)c(=O)cc1[C@@H](NCc1cccc([N+](=O)[O-])c1)CC2		> 100 µM	> 100 µM	> 100	> 100 µM	43.8	17.8 µM	> 100	> 100		38.1 µM		0.17		
CCOC(OCC)C(CC)[Se]c1ccccc1 (centres undefined)	> 100	> 100 µM	> 100 µM	> 100	> 100 µM	> 100	> 100 µM	> 100	19	> 100	21.6 µM	> 100	> 100		
COc1cc2c(c(OC)c1OC)-c1ccc(SC)c(=O)cc1[C@@H](NC(=O)c1ccc([N+](=O)[O-])cc1)CC2		25 µM and 59.4 µM	25 µM and > 100 µM		25 µM and > 100 µM		25 µM and > 100 µM	25	0.302		25 µM and > 100 µM				
Cn1cnc(SC2=C3C(=O)C=C4S[C@H]5C[C@]42c2c(c(O)c4c6c2=[N+]3CCC=6C=N4)N5)c1CC(N)C(=O)O (some centres undefined)	28.2	37.6 µM	10.2 µM	33.7	30.2 µM	27.2	29.2 µM	45.9	38.8		26.1 µM	43.8	31.8		
Cn1nc2ccc3nccc(NCCNCCO)c3c2n1		90.9 µM	> 100 µM	69	> 100 µM	> 100	> 100 µM	> 100	> 100	> 100	43.1 µM	87.5	> 100		
COc1cc(C(O)C(=O)c2cnc3cc([N+](=O)[O-])ccc3n2)ccc1O (centres undefined)	> 100	> 100 µM	> 100 µM	> 100	> 100 µM	> 100	> 100 µM	> 100	> 100	> 100	> 100 µM	> 100	> 100		
N#CCc1nc2cc(C(F)(F)F)ccc2s1			> 100 µM	> 100		87.4				> 100	80.2 µM	> 100	> 100	> 100	
COc1ccc(CCCN2c3ccccc3Sc3ccccc32)cc1	> 100	> 100 µM	> 100 µM	> 100	> 100 µM	> 100	> 100 µM	> 100	> 100	> 100	> 100 µM	> 100	> 100		
